{
  "source": "paper PMC4623604",
  "about": "“Discovery of Small Molecules that Inhibit the Disordered Protein, p27^Kip1” (Scientific Reports, 2015)",
  "target": "T1, p27-D2/Cdk2/cyclin A (Homo sapiens, UniProt P46527)",
  "T1 construct": "p27-D2 (residues 58-105 of human p27); 6xHis (N, cleaved yes); made in house; host or cells: E. coli for p27-D2",
  "T1 sequence (P46527 58-105)": "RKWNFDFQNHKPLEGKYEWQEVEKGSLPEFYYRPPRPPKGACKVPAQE",
  "experiment": "2D 1H-15N TROSY-HSQC NMR displacement of p27-D2 from Cdk2/cyclin A",
  "assay_type": "binding",
  "conditions": "3 mM SJ403, 100 μM complex, 308 K",
  "experimental": "We next used NMR spectroscopy to monitor the displacement of ^2H/^13C/^15N-labeled p27-D2 from Cdk2/cyclin A by SJ403; the complex of p27-D2 with Cdk2/cyclin A (100 μM) was prepared with a slight excess of ^2H/^13C/^15N-p27-D2 (mole ratio, 1.1:1.0 p27-D2:Cdk2/cyclin A). […] In this method, the relative population of the free state resonances (p^f; for the resonance of each p27-D2 residue) was determined as a fraction of the total intensity of both free and bound resonances for a given residue. These values were compared by forming the ratio of the two relative free state populations (p^fw/SJ403/p^fw/o SJ403); values greater than 1 indicated compound-dependent displacement. The relative populations for the bound state (p^b) were also determined for samples without (p^bw/o SJ403) and with SJ403 (p^bw/SJ403). […]\nFigure 5 2D ^1H-^15N TROSY-HSQC NMR analysis of displacement of ^15N-p27-D2 from Cdk2/cyclin A by SJ403. 2D ^1H-^15N TROSY-HSQC NMR spectra of p27-D2/Cdk2/cyclin A in the absence (control) and presence of SJ403 (3 mM), respectively, were recorded. […]",
  "data": [
    {"smiles": "CCn1c(C)c(C)n2c3c(=O)n(C)c(=O)n(C)c3nc12", "note": "[SJ403]", "values": [
      {"measurement": "displacement of p27-D2 from Cdk2/cyclin A by NMR", "value": "partial displacement"}
    ]}
  ]
}
